Experiments:
[1] = Pharmacokinetic study in mice (IV and PO); type: in vivo, ICR mice; conditions: mouse; for bioavailability: oral 5 mg/kg vs IV 2 mg/kg, after dose normalization
Protocol: (§1) The validated LC-MS/MS method was applied to determine ARV-110 in pharmacokinetic studies in rats and mice. Animal studies were approved in advance by the Institutional Animal Care and Use Committee of Chungnam National University (202103A-CNU-053; Daejeon, Republic of Korea). Male Sprague Dawley (SD) rats (7 weeks old, 210–251 g) and male ICR mice (6 weeks old, 25–32 g) were purchased from Orient Bio Inc. (Seongnam, Republic of Korea). Their habitat was maintained under a 12 h light–dark cycle at a room temperature of 20–25 °C and a relative humidity of 40–60%. The animals had free access to food and water. Food fasting was started 14 or 4 h prior to drug administration to rats and mice, respectively. After drug administration, the animals were not given food or water for another 4 h.
The drug solution for the pharmacokinetic study in mice was prepared by dissolving ARV-110 in DMSO–PEG400–Cremophor EL–saline (5:30:2.5:62.5, v/v/v/v). The drug solution was administered via an IV bolus into the tail vein at a dose of 2 mg/kg or PO at a dose of 5 mg/kg. Blood samples (50 μL) were alternatively collected from the right retro-orbital plexus at 0.05 (IV only), 0.12, 0.5, 1, 2, 4, 8, 24, and 48 h after ARV-110 administration. Plasma was obtained by centrifuging the blood at 17,600× g for 5 min, and a 20 μL aliquot of plasma was stored at −20 °C until analysis.
(§2) For plasma sample preparation, 20 μL of rat or mouse plasma was added to 20 μL of IS solution (10 μg/mL) and 110 μL of acetonitrile. After vigorous mixing for 10 min, the mixture was centrifuged at 13,500 rpm for 10 min. An aliquot of the supernatant (100 μL) was collected for analysis. Cmax and Tmax were determined directly from the plasma concentration–time profile of each animal. To determine other pharmacokinetic parameters, the experimental data were analyzed using Phoenix® 8.2 software (Certara L.P., Princeton, NJ, USA), as described previously. All data are presented as mean ± SD.

[2] = test system: resistance models; design: method as in PMID 31885879, PMID 30271980; conditions: cited from earlier work
[3] = design: method as in doi:10.1200/JCO.2020.38.15_suppl.3500; conditions: preliminary data from a phase I clinical trial; cited from earlier work
[4] = Stability of ARV-110 QC samples in mouse plasma under storage conditions; type: in vitro ADME
Protocol: (§3) The sample stability in rat and mouse plasma was evaluated at low and high QC concentrations. The short-term stability was evaluated at room temperature for 1 h, whereas the long-term stability was determined by assaying samples stored at −20 °C for 4 weeks. […] The freeze–thaw stability was tested by subjecting samples to three freeze–thaw cycles.

[5] = Hepatic microsomal metabolic stability, human; type: in vitro ADME; conditions: 1 mM NADPH, 37 °C
Protocol: (§4) The stabilities of ARV-110 in the hepatic microsomal fraction and plasma were investigated for three species (human, rat, and mouse). For the microsomal stability study, a reaction mixture containing hepatic microsomes (protein concentration, 0.5 mg/mL) and 1 mM NADPH in phosphate buffer (pH 7.4) was pre-incubated in a thermomixer (5 min, 37 °C, 200 rpm). To initiate the metabolic reaction, 5 μL of ARV-110 in methanol (100 μM) was added to the pre-incubated mixture to obtain a final ARV-110 concentration of 1 μM. The metabolic reactions of buspirone and verapamil were conducted simultaneously as positive controls. For plasma stability measurements, 5 μL of ARV-110 in methanol (100 μM) was added to pre-warmed blank plasma to obtain a final ARV-110 concentration of 1 μM. Procaine was used to control plasma stability. The temperature was maintained and agitation was continued throughout the reaction, and sampling was conducted at predetermined time points (0 (beginning of the reaction), 15; 30; 60; 120; […] min). For the microsomal and plasma stability measurements, the reaction was conducted for 120 and 240 min, respectively. […] The elimination rate constant (ke) was determined as the slope of the linear regression between the log of the percentage of analyte remaining and the incubation time. […]

[6] = In vitro plasma stability, mouse; type: in vitro ADME; conditions: 37 °C, incubation 4 h, read-out: T1/2 in plasma
Protocol: as §4

[7] = Stability of ARV-110 QC samples in rat plasma under storage conditions; type: in vitro ADME
Protocol: as §3

[8] = test system: AR; design: method as in PMID 31885879, PMID 30271980; conditions: various prostate cancer cell lines; cited from earlier work
[9] = In vitro plasma stability, human; type: in vitro ADME; conditions: 37 °C, incubation 4 h, read-out: T1/2 in plasma
Protocol: as §4

[10] = Hepatic microsomal metabolic stability, mouse; type: in vitro ADME; conditions: 1 mM NADPH, 37 °C
Protocol: as §4

[11] = Pharmacokinetic study in rats (IV and PO); type: in vivo, Sprague Dawley (SD) rats; conditions: rat; for bioavailability: oral 5 mg/kg vs IV 2 mg/kg
Protocol: as §1
The drug solution for the pharmacokinetic study in rats was prepared by dissolving ARV-110 in a dimethyl sulfoxide (DMSO)–PEG400–Cremophor EL–saline (5:40:5:50, v/v/v/v). The drug solution was administered to the rats via a single IV bolus into the tail vein at a dose of 2 mg/kg or PO using a gavage needle at a dose of 5 mg/kg. Blood samples (100 μL) were collected from the jugular vein using heparinized syringes at 0.083 (IV only), 0.25, 0.5, 1, 2, 4, 6, 8, 24, and 48 h after ARV-110 administration. Plasma was collected from the blood by centrifugation, and a 20 μL aliquot of plasma was stored at −20 °C until analysis.
as §2

[12] = Hepatic microsomal metabolic stability, rat; type: in vitro ADME; conditions: 1 mM NADPH, 37 °C
Protocol: as §4

[13] = In vitro plasma stability, rat; type: in vitro ADME; conditions: 37 °C, incubation 4 h, read-out: T1/2 in plasma
Protocol: as §4

[14] = design: method as in PMID 34355087; conditions: cited from earlier work
[15] = male, ICR, in vivo, intravenous, 2 mg/kg
[16] = male, ICR, in vivo, oral, 5 mg/kg
[17] = 15 min at room temperature (25 °C), nominal 5 ng/mL
[18] = 15 min at room temperature (25 °C), nominal 2500 ng/mL
[19] = 1 h at room temperature (25 °C), nominal 5 ng/mL
[20] = 1 h at room temperature (25 °C), nominal 2500 ng/mL
[21] = 4 h on ice cold, nominal 5 ng/mL
[22] = 4 h on ice cold, nominal 2500 ng/mL
[23] = Freeze–thaw (3 cycles), nominal 5 ng/mL
[24] = Freeze–thaw (3 cycles), nominal 2500 ng/mL
[25] = Long term (4 weeks at −20 °C), nominal 5 ng/mL
[26] = Long term (4 weeks at −20 °C), nominal 2500 ng/mL
[27] = Processed sample (autosampler, 10 °C, 24 h), nominal 5 ng/mL
[28] = Processed sample (autosampler, 10 °C, 24 h), nominal 2500 ng/mL
[29] = male, Sprague Dawley, in vivo, intravenous, 2 mg/kg
[30] = male, Sprague Dawley, in vivo, oral, 5 mg/kg

N#Cc1ccc(O[C@H]2CC[C@H](NC(=O)c3ccc(N4CCC(CN5CCN(c6cc7c(cc6F)C(=O)N(C6CCC(=O)NC6=O)C7=O)CC5)CC4)nn3)CC2)cc1Cl (stereo partly drawn) [ARV-110, bavdegalutamide]
AUC(0-inf) [1, 15]: 11300 ng·h/mL
AUC(0-t) [1, 15]: 10800 ng·h/mL
Cmax [1, 15]: 1260 ± 99 ng/mL
MRT [1, 15]: 13.1 ± 0.9 h
Tmax [1, 15]: 0.05 h
clearance [1, 15]: 3.02 mL/min/kg
half-life [1, 15]: 11.4 ± 0.51 h
Vd ([1]; male, ICR, in vivo, intravenous, 2 mg/kg, read-out: Vss): 2.37 ± 0.402 L/kg
AUC(0-inf) [1, 16]: 10700 ng·h/mL
AUC(0-t) [1, 16]: 9870 ± 1000 ng·h/mL
Cmax [1, 16]: 612 ± 88.4 ng/mL
MRT [1, 16]: 12.9 ± 0.84 h
Tmax [1, 16]: 4.8 ± 1.79 h
half-life [1, 16]: 14.6 ± 2.48 h
bioavailability ([1]; male, ICR, in vivo, 5 mg/kg, read-out: Bioavailability): 37.9%
bioavailability [1]: 37.89 ± 4.16%
reduction of tumor growth [2]: 70–100%
safety and tolerability in patients [3]: satisfactory safety and tolerability
Stability in Mouse Plasma (%) [4, 17]: 99.43 ± 2.93%
Stability in Mouse Plasma (%) [4, 18]: 95.74 ± 5.74%
Stability in Mouse Plasma (%) [4, 19]: 83.70 ± 14.24%
Stability in Mouse Plasma (%) [4, 20]: 78.91 ± 4.93%
Stability in Mouse Plasma (%) [4, 21]: 93.01 ± 5.30%
Stability in Mouse Plasma (%) [4, 22]: 94.09 ± 5.23%
Stability in Mouse Plasma (%) [4, 23]: 104.0 ± 6.1%
Stability in Mouse Plasma (%) [4, 24]: 103.2 ± 4.1%
Stability in Mouse Plasma (%) [4, 25]: 97.97 ± 10.23%
Stability in Mouse Plasma (%) [4, 26]: 97.59 ± 3.78%
Stability in Mouse Plasma (%) [4, 27]: 98.77 ± 3.58%
Stability in Mouse Plasma (%) [4, 28]: 98.62 ± 3.54%
ARV-110 remained in QC samples ([4]; mouse plasma, short-term storage, 1 h at 25 °C): ~80%
drug remaining after incubation for 2 h ([5]; human hepatic microsomes 0.5 mg/mL, 1 μM): 92.07%
half-life at 1 μM ([5]; pH 7.4, human hepatic microsomes 0.5 mg/mL, read-out: elimination half-life (T1/2) in hepatic microsomes): 16.4 h
half-life at 1 μM [6]: 1.55 h
Stability in Rat Plasma (%) [7, 17]: 100.6 ± 7.8%
Stability in Rat Plasma (%) [7, 18]: 96.99 ± 2.27%
Stability in Rat Plasma (%) [7, 19]: 68.73 ± 7.74%
Stability in Rat Plasma (%) [7, 20]: 68.82 ± 1.08%
Stability in Rat Plasma (%) [7, 21]: 92.20 ± 1.38%
Stability in Rat Plasma (%) [7, 22]: 92.21 ± 2.24%
Stability in Rat Plasma (%) [7, 23]: 103.2 ± 3.9%
Stability in Rat Plasma (%) [7, 24]: 101.8 ± 3.4%
Stability in Rat Plasma (%) [7, 25]: 100.6 ± 5.6%
Stability in Rat Plasma (%) [7, 26]: 100.5 ± 5.0%
Stability in Rat Plasma (%) [7, 27]: 99.60 ± 2.91%
Stability in Rat Plasma (%) [7, 28]: 102.6 ± 4.1%
ARV-110 remained in QC samples ([7]; rat plasma, short-term storage, 1 h at 25 °C): approximately 69%
degradation of AR [8]: 95–98%
half-life at 1 μM [9]: 0.4 h
drug remaining after incubation for 2 h ([10]; mouse hepatic microsomes 0.5 mg/mL, 1 μM): 80.95%
half-life at 1 μM ([10]; pH 7.4, mouse hepatic microsomes 0.5 mg/mL, read-out: elimination half-life (T1/2) in hepatic microsomes): 6.92 h
AUC(0-inf) [11, 29]: 4860 ± 381 ng·h/mL
AUC(0-t) [11, 29]: 4530 ± 288 ng·h/mL
Cmax [11, 29]: 2520 ± 292 ng/mL
MRT [11, 29]: 10.2 ± 0.48 h
Tmax [11, 29]: 0.083 h
clearance [11, 29]: 6.89 mL/min/kg
half-life [11, 29]: 13.6 ± 1.43 h
Vd ([11]; male, Sprague Dawley, in vivo, intravenous, 2 mg/kg, read-out: Vss): 5.78 ± 0.32 L/kg
AUC(0-inf) [11, 30]: 2890 ± 318 ng·h/mL
AUC(0-t) [11, 30]: 2420 ± 222 ng·h/mL
Cmax [11, 30]: 110 ± 9.2 ng/mL
MRT [11, 30]: 16.4 ± 1.16 h
Tmax [11, 30]: 5.5 ± 1.92 h
half-life [11, 30]: 17.7 ± 3.21 h
bioavailability ([11]; male, Sprague Dawley, in vivo, 5 mg/kg, read-out: Bioavailability): 23.8%
bioavailability [11]: 23.83 ± 2.62%
half-life at 1 μM ([12]; pH 7.4, rat hepatic microsomes 0.5 mg/mL, read-out: elimination half-life (T1/2) in hepatic microsomes): 36.9 h
drug remaining after incubation for 2 h ([12]; rat hepatic microsomes 0.5 mg/mL, 1 μM): 96.60%
half-life at 1 μM [13]: 0.733 h

Nc1cccc2c1C(=O)N(C1CCC(=O)NC1=O)C2=O (stereo not drawn) [pomalidomide]
logP [14]: 0.01
pKa [14]: 1.89
